Legend:
serum uric acid = test: twelve week study of serum uric acid levels in patients with manifest type 2 diabetes mellitus; type: in vivo, human; conditions: type 2 diabetes patients; for serum uric acid level, 12 weeks: after 12 weeks
Procedure: In a twelve week study of patients with manifest type 2 diabetes mellitus serum uric acid levels were measured at baseline and every 4 weeks in patients randomized to an administration of the compound (I.9) of 5 mg, 10 mg, or 25 mg or placebo or metformin 2000 mg, daily for 12 weeks.

blood glucose = test: oral glucose tolerance test in ZDF rats; type: in vivo, rat; conditions: oral glucose load 2 g/kg 30 min later
Procedure: According to a first example an oral glucose tolerance test is performed in overnight fasted 9-weeks old male Zucker Diabetic Fatty (ZDF) rats (ZDF/Crl-Lepr^fa). A pre-dose blood sample is obtained by tail bleed. Blood glucose is measured with a glucometer, and the animals are randomized for blood glucose (n=5/group). Subsequently, the groups receive a single oral administration of either vehicle alone (0.5% aqueous hydroxyethylcellulose containing 3 mM HCl and 0.015% Polysorbat 80) or vehicle containing the SGLT2 inhibitor. The animals receive an oral glucose load (2 g/kg) 30 min after compound administration. Blood glucose is measured in tail blood 30 min, 60 min, 90 min, 120 min, and 180 min after the glucose challenge. Glucose excursion is quantified by calculating the reactive glucose AUC. The data are presented as mean±SEM. The two-sided unpaired Student t-test is used for statistical comparison of the control group and the active groups.
Compound (I.9) (1-chloro-4-(β-D-glucopyranos-1-yl)-2-[4-((S)-tetrahydrofuran-3-yloxy)-benzyl]-benzene) was orally administered to ZDF rats at doses of 0.3 mg/kg, 3 mg/kg or 30 mg/kg body weight. Compound (I.9) reduced glucose excursion by 15% at 0.3 mg/kg (not significant), by 62% at 3 mg/kg (p<0.001) and by 89% at 30 mg/kg (p<0.001).

[1] = body weight in cafeteria-diet obese female Wistar rats; type: in vivo, rat; conditions: 28 days
Procedure: All experimental procedures concerning the use of laboratory animals were carried out under a Home Office Certificate of Designation. An animal model of obesity was used to study the effect of the compound (I.9) on body weight and total body fat content. For this, female Wistar rats were made obese by exposure to a simplified cafeteria diet containing high fat chow, chocolate and ground peanuts for approximately 24 weeks. Following the induction of obesity, rats were given vehicle (0.5% aqueous hydroxyethyl-cellulose) for 7 days and then dosed orally once daily with either vehicle or 3 mg/kg or 10 mg/kg compound (I.9) for 28 days. For the duration of the study rats were maintained on the cafeteria diet. Therein “Cpd A” denotes the glucopyranosyl-substituted benzene derivative (I.9) at a dose of 3 mg/kg or 10 mg/kg. Results are means (adjusted for differences between the body weights of the different treatment groups at baseline (Day 1))±SEM (calculated from the residuals of the statistical model), n=10. After 28 day daily oral treatment with the compound (I.9) a reduced body weight compared to the vehicle-treated control group was observed. Body weight data was analysed by analysis of covariance with body weights on Day 1 as covariate. […]

[2] = total body fat content (FoodScan NIR) in cafeteria-diet obese female Wistar rats; type: in vivo, rat; conditions: 10 mg/kg orally once daily, end of study Day 34, p<0.05
Procedure: All experimental procedures concerning the use of laboratory animals were carried out under a Home Office Certificate of Designation. An animal model of obesity was used to study the effect of the compound (I.9) on body weight and total body fat content. For this, female Wistar rats were made obese by exposure to a simplified cafeteria diet containing high fat chow, chocolate and ground peanuts for approximately 24 weeks. Following the induction of obesity, rats were given vehicle (0.5% aqueous hydroxyethyl-cellulose) for 7 days and then dosed orally once daily with either vehicle or 3 mg/kg or 10 mg/kg compound (I.9) for 28 days. […] Results are means (adjusted for differences between the body weights of the different treatment groups at baseline (Day 1))±SEM (calculated from the residuals of the statistical model), n=10. […] Body weight data was analysed by analysis of covariance with body weights on Day 1 as covariate. […]
At the end of the study on Day 34 (24 hours after the last treatment on Day 33) all rats were terminated, the body exsanguinated and the following tissues removed: the caudate liver lobe, the pancreas, the left kidney and one soleus muscle. Body composition (body fat, protein and water) was determined using the FoodScan NIR (near infra-red) meat analyser (Foss UK). […] Standard errors of the mean (SEM) are calculated from the residuals of the statistical model. […]

[3] = particle size distribution measurement by laser diffraction; type: physicochemical; conditions: milled active substance
Source text: The value X90 refers to the 90% value of the volume distribution measured using a laser diffractometer. In other words, for the purposes of the present invention, the X90 value denotes the particle size below which 90% of the quantity of particles is found based on the volume distribution. Analogously the value X50 refers to the 50% value (median) of the volume distribution measured using a laser diffractometer. In other words, for the purposes of the present invention, the X50 value denotes the particle size below which 50% of the quantity of particles is found based on the volume distribution. Analogously the value X10 refers to the 10% value of the volume distribution measured using a laser diffractometer. In other words, for the purposes of the present invention, the X10 value denotes the particle size below which 10% of the quantity of particles is found based on the volume distribution.
Preferably all X90, X50, X10 values hereinbefore and hereinafter are by volume and determined by laser-diffraction method, in particular low angle laser light scattering, i.e. Fraunhofer diffraction. A preferred test is described in the experimental section. The laser diffraction method is sensitive to the volume of a particle and provides a volume-average particle size, which is equivalent to the weight-average particle size if the density is constant. The skilled artesian knows that the results of the particle size distribution determination by one technique can be correlated with that from another technique, for example on an empirical basis by routine experimentation. Alternatively the particle size distribution in the pharmaceutical composition or dosage form can be determined by microscopy, in particular electron microscopy or scanning electron microscopy.
Particle size distribution measurement is performed for example via light scattering or laser diffraction technique. To determine the particle size the powder is fed into a laser diffraction spectrometer for example by means of a dispersing unit. The test method is described below in detail: • Equipment: Laser Diffraction Spectrometer Sympatec HELOS Particle Sizer. • Lens: R31 (0.5/0.9 μm-175 μm) • Sample Dispersing Unit: Dry disperser RODOS/M • Vacuum: Nilfisk • Feeder: ASPIROS • Feed Velocity: 60.00 mm/s • Primary pressure: 2.00 bar • Injector depression: maximize (mbar)2 • Reference Measurement: 10 seconds • Cycle Time: 100 msec • Trigger Conditions: Start 0.0 seconds after optical concentration ≥1% valid always • Stop after 5.0 seconds optical concentration ≤1% or after 30 seconds real time • Optical Concentration: Approximately range 3-12% • Evaluation: HRLD • Sample Size: Approximately 100 mg • Number of measurements: 2 (duplicate)
The instrument is set up according to the manufacturer's recommendation and using the manufacturer provided software. The sample container is thoroughly mixed and tumbled prior to removing a portion of the sample to ensure that a representative sample is tested. Duplicate samples are prepared by using a spatula to transfer approximately 100 mg of a sample into the ASPIROS glass vials and cap the vials. The capped cials are placed into the feeder.

HbA1c = conditions: metformin on its own, in the diabetic; cited from earlier work

With `OC[C@H]1O[C@@H](c2ccc(Cl)c(Cc3ccc(O[C@H]4CCOC4)cc3)c2)[C@H](O)[C@@H](O)[C@@H]1O` [Compound (I.9), 1-chloro-4-(β-D-glucopyranos-1-yl)-2-[4-((S)-tetrahydrofuran-3-yloxy)-benzyl]-benzene] as the compound, how does the “serum uric acid level, baseline” value (serum uric acid; 5 mg daily group) read?
Its value is 5.5 mg/dL.

And the “serum uric acid level, 12 weeks” value (serum uric acid; 5 mg daily)?
Its value is 5.0 mg/dL.

And the “serum uric acid level, baseline” value (serum uric acid; 10 mg daily group)?
Its value is 5.3 mg/dL.

And the “serum uric acid level, 12 weeks” value (serum uric acid; 10 mg daily)?
The value was 4.7 mg/dL.

And the “serum uric acid level, baseline” value (serum uric acid; 25 mg daily group)?
The value was 5.4 mg/dL.

What about the “serum uric acid level, 12 weeks” value (serum uric acid; 25 mg daily) of the same compound?
The value was 4.7 mg/dL.

And the “reduction in serum uric acid levels compared to baseline” value (serum uric acid; all doses (5 mg, 10 mg, 25 mg daily), 12 weeks)?
Its value is 0.5 to 0.7 mg/dL.

And the “reduction of glucose excursion (reactive glucose AUC)” value (from here on “reduction of glucose excursion”) (blood glucose; single oral dose 0.3 mg/kg, not significant)?
Its value is 15%.

What about the “reduction of glucose excursion” value (blood glucose; single oral dose 3 mg/kg, p<0.001) of the same compound?
Its value is 62%.

And the “reduction of glucose excursion” value (blood glucose; single oral dose 30 mg/kg, p<0.001)?
The value was 89%.

What about the “reduction of body weight versus vehicle control” value ([1]; 3 mg/kg orally once daily) of the same compound?
Its value is 4.1%.

What about the “reduction of body weight versus vehicle control” value ([1]; 10 mg/kg orally once daily, significant (p<0.05)) of the same compound?
The value was 6.9%.

What about the “total body fat content (weight per rat) in comparison to vehicle-treated animals” value [2] of the same compound?
The value was “significantly lower”.

Which results are given for `OC[C@H]1O[C@@H](c2ccc(Cl)c(Cc3ccc(O[C@H]4CCOC4)cc3)c2)[C@H](O)[C@@H](O)[C@@H]1O` [Active substance Batch 2]?
X10 (particle size, volume distribution) [3]: 1.7 μm; X50 (particle size, volume distribution) [3]: 12.1 μm; X90 (particle size, volume distribution) [3]: 25.9 μm

Which results are given for `OC[C@H]1O[C@@H](c2ccc(Cl)c(Cc3ccc(O[C@H]4CCOC4)cc3)c2)[C@H](O)[C@@H](O)[C@@H]1O` [Active substance Batch 1]?
X10 (particle size, volume distribution) [3]: 1.8 μm; X50 (particle size, volume distribution) [3]: 18.9 μm; X90 (particle size, volume distribution) [3]: 45.3 μm

Which “serum uric acid level, baseline” value (serum uric acid; 2000 mg daily group) does the source give for `CN(C)C(=N)N=C(N)N` [Metformin, reference compound] here?
The value was 5.6 mg/dL.

What about the “change of serum uric acid levels compared to baseline” value (serum uric acid; 2000 mg daily, 12 weeks) of the same compound?
Its value is “increased”.

And the “serum uric acid level, 12 weeks” value (serum uric acid; 2000 mg daily)?
Its value is 6.2 mg/dL.

And the “average improvement in the HbA1c value” (HbA1c)?
The value was 1.0-1.5%.

Reference: patent publication US12527810B2, “Pharmaceutical composition, methods for treating and uses thereof” (Boehringer Ingelheim International GmbH, priority 2009, dated 2026)
